Measurements taken from patent US8030354B2, “Substituted biphenyl GPR40 modulators” (Amgen Inc., priority 2007, dated 2011).

Legend:
[1] = target: T1, GPR40 (Homo sapiens, UniProt O14842); test: Inositol phosphate accumulation assay (A9_GPR40 cells); assay type: cell-based; design: expressed in transfected cells; host or cells: CHO cells stably transfected with GPR40 and aequorin; conditions: inositol phosphate assay, A9_GPR40 cells, 1 hour; read-out: IP3 EC50
In short: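 A9 cells stably expressing GPR40 were labelled 16 h with 1 μCi/mL ^3H-inositol in inositol-free DMEM with dialysed FBS. Compounds in HBSS/10 mM LiCl with HSA were applied for 1 h at 37° C, then quenched with 20 mM formic acid. Accumulated [^3H] inositol phosphates were counted by SPA.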

[2] = target: T1, GPR40; test: Cell-based aequorin assay (CHO cells stably expressing GPR40 and aequorin); design: expressed in transfected cells; host or cells: CHO cells stably transfected with GPR40 and aequorin; conditions: activation of human GPR40, CHO cells, 0.01% HSA
In short: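 CHO cells stably co-expressing GPR40 and aequorin, loaded with coelenterazine (1 ug/mL, 2 h, room temperature) in H/HBSS with 20 mM Hepes and 0.01% fatty acid-free HSA. Serially diluted compounds added; luminescence recorded over 20 s. EC50 from dose-response of maximum relative light units.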

T1 sequence (O14842 whole entry): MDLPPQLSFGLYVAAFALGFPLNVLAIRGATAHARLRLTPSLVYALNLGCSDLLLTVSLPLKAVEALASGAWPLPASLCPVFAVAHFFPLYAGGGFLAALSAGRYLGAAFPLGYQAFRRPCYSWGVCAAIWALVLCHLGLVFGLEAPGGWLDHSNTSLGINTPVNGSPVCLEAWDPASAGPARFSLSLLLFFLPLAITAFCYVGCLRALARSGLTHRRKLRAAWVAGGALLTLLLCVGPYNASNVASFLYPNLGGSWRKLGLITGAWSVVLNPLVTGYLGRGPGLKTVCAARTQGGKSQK

EC50 [1]	EC50 [2]	Structure (SMILES)
0.01 to 0.1 µM	0.1 to 1 µM	CCC(CC(=O)O)c1cc(OCc2ccc(-c3cc(OC)ccc3F)c(C3=CCCC3(C)C)c2)ccc1F (single isomer, unassigned) [Example 76.1, (3R)-3-(5-(((2-(5,5-Dimethyl-1-cyclopenten-1-yl)-2′-fluoro-5′-(methyloxy)-1,1′-biphenyl-4-yl)methyl)oxy)-2-fluorophenyl)pentanoic acid or (3S)-3-(5-(((2-(5,5-dimethyl-1-cyclopenten-1-yl)-2′-fluoro-5′-(methyloxy)-1,1′-biphenyl-4-yl)methyl)oxy)-2-fluorophenyl)pentanoic acid]
0.01 to 0.1 µM	0.1 to 1 µM	CCC(CC(=O)O)c1cc(OCc2ccc(-c3cc(OC)ccc3F)c(C3CCCC3(C)C)c2)ccc1F (single isomer, unassigned) [Example 76.3]
0.01 to 0.1 µM	0.1 to 1 µM	CCC(CC(=O)O)c1cccc(OCc2ccc(-c3cc(OC)ccc3F)c(C3=CCCC3(C)C)c2)c1F (single isomer, unassigned) [Example 77.1, (3R)-3-(3-(((2-(5,5-Dimethyl-1-cyclopenten-1-yl)-2′-fluoro-5′-(methyloxy)-1,1′-biphenyl-4-yl)methyl)oxy)-2-fluorophenyl)pentanoic acid or (3S)-3-(3-(((2-(5,5-dimethyl-1-cyclopenten-1-yl)-2′-fluoro-5′-(methyloxy)-1,1′-biphenyl-4-yl)methyl)oxy)-2-fluorophenyl)pentanoic acid]
0.1 to 1 µM	0.1 to 1 µM	CCC(CC(=O)O)c1cccc(OCc2ccc(-c3cc(OC)ccc3F)c(C(C)(C)C)c2)c1F (single isomer, unassigned) [Example 77.2, (3R)-3-(3-(((2-(1,1-Dimethylethyl)-2′-fluoro-5′-(methyloxy)-1,1′-biphenyl-4-yl)methyl)oxy)-2-fluorophenyl)pentanoic acid or (3S)-3-(3-(((2-(1,1-dimethylethyl)-2′-fluoro-5′-(methyloxy)-1,1′-biphenyl-4-yl)methyl)oxy)-2-fluorophenyl)pentanoic acid]
< 0.01 µM	0.1 to 1 µM	CCC(CC(=O)O)c1cccc(OCc2ccc(-c3cc(OC)ccc3F)c(C(OC)C(C)(C)C)c2)c1F (single isomer, unassigned) [Example 77.4]
< 0.01 µM	0.1 to 1 µM	CCC(CC(=O)O)c1cccc(OCc2ccc(-c3cc(OC)ccc3F)c(C(C)C(C)(C)C)c2)c1F (single isomer, unassigned) [Example 77.5]
< 0.01 µM	0.1 to 1 µM	CCC(CC(=O)O)c1cccc(OCc2cc(C3CCCC3(C)C)c(-c3cc(OC)ccc3F)cc2F)c1F (single isomer, unassigned) [Example 77.6]
0.1 to 1 µM	1 to 10 µM	CC[C@H](CC(=O)O)c1cccc(OCc2ccc(-c3cc(C(F)F)ccc3F)c(C3=CCCC3(C)C)c2)c1F (single isomer, unassigned) [Example 77.7, (3R)-3-(3-(((5′-(Difluoromethyl)-2-(5,5-dimethyl-1-cyclopenten-1-yl)-2′-fluoro-1,1′-biphenyl-4-yl)methyl)oxy)-2-fluorophenyl)pentanoic acid or (3S)-3-(3-(((5′-(difluoromethyl)-2-(5,5-dimethyl-1-cyclopenten-1-yl)-2′-fluoro-1,1′-biphenyl-4-yl)methyl)oxy)-2-fluorophenyl)pentanoic acid]
< 0.01 µM	0.1 to 1 µM	CCC(CC(=O)O)c1cccc(OCc2ccc(-c3cc(OC)ccc3F)c(C3CCCCC3(C)C)c2)c1F (single isomer, unassigned) [Example 77.8]
< 0.01 µM	0.1 to 1 µM	CCC(CC(=O)O)c1cccc(OCc2ccc(-c3cc(OC)ncc3F)c(C3CCCC3(C)C)c2)c1F (single isomer, unassigned) [Example 77.9]
< 0.01 µM	0.1 to 1 µM	CCC(CC(=O)O)c1cccc(OCc2ccc(-c3cc(OC)ncc3F)c(C(OC)C(C)(C)C)c2)c1F (single isomer, unassigned) [Example 77.10]
< 0.01 µM	0.1 to 1 µM	CCC(CC(=O)O)c1cccc(OCc2ccc(-c3cc(OC)ncc3F)c(C(O)(C(C)(C)C)C(C)(C)C)c2)c1F (single isomer, unassigned) [Example 77.11, (3R)-3-(3-(4-(5-Fluoro-2-methoxypyridin-4-yl)-3-(3-hydroxy-2,2,4,4-tetramethylpentan-3-yl)benzyloxy)-2-fluorophenyl)pentanoic acid or (3R)-3-(3-(4-(5-fluoro-2-methoxypyridin-4-yl)-3-(3-hydroxy-2,2,4,4-tetramethylpentan-3-yl)benzyloxy)-2-fluorophenyl)pentanoic acid]
< 0.01 µM	0.01 to 0.1 µM	CCC(CC(=O)O)c1cccc(OCc2ccc(-c3cccc(OC)c3)c(C3CCCC3(C)C)c2)c1 (single isomer, unassigned) [Example 78.6]
0.01 to 0.1 µM	0.1 to 1 µM	CC[C@H](CC(=O)O)c1cccc(OCc2ccc(-c3cc(OC)ccc3F)c(C3CCCCCC3)c2)c1 (single isomer, unassigned) [Example 78.7, (3R)-3-(3-(((2-Cycloheptyl-2′-fluoro-5′-(methyloxy)-1,1′-biphenyl-4-yl)methyl)oxy)phenyl)pentanoic acid or (3S)-3-(3-(((2-cycloheptyl-2′-fluoro-5′-(methyloxy)-1,1′-biphenyl-4-yl)methyl)oxy)phenyl)pentanoic acid]

Continued, compound first:

Structure (SMILES)	EC50 [1]	EC50 [2]
CCC(C)(C)C(OC)c1cc(COc2cccc(C(CC(=O)O)CC3CC3)c2)ccc1-c1cc(OC)ccc1F (single isomer, unassigned) [Example 69.42]	< 0.01 µM	0.1 to 1 µM
COc1ccc(F)c(-c2ccc(COc3cccc([C@@H](CC(=O)O)CC4CC4)c3)cc2[C@H]2OCCC2(C)C)c1 (single isomer, unassigned) [Example 69.44]	0.01 to 0.1 µM	0.1 to 1 µM
COc1cccc(-c2ccc(COc3cccc(C(CC(=O)O)C4CCC4)c3)cc2C(C)(C)C)c1 (single isomer, unassigned) [Example 70.1, (3S)-3-Cyclobutyl-3-(3-(((2-(1,1-dimethylethyl)-3′-(methyloxy)-1,1′-biphenyl-4-yl)methyl)oxy)phenyl)propanoic acid or (3R)-3-cyclobutyl-3-(3-(((2-(1,1-dimethylethyl)-3′-(methyloxy)-1,1′-biphenyl-4-yl)methyl)oxy)phenyl)propanoic acid]	0.01 to 0.1 µM	0.1 to 1 µM
COc1ccc(F)c(-c2ccc(COc3cccc(C(CC(=O)O)C4CCC4)c3)cc2C2=CCCC2(C)C)c1 (single isomer, unassigned) [Example 70.2, (3S)-3-Cyclobutyl-3-(3-(((2-(5,5-dimethyl-1-cyclopenten-1-yl)-2′-fluoro-5′-(methyloxy)-1,1′-biphenyl-4-yl)methyl)oxy)phenyl)propanoic acid or (3R)-3-cyclobutyl-3-(3-(((2-(5,5-dimethyl-1-cyclopenten-1-yl)-2′-fluoro-5′-(methyloxy)-1,1′-biphenyl-4-yl)methyl)oxy)phenyl)propanoic acid]	0.01 to 0.1 µM	0.1 to 1 µM
COc1ccc(F)c(-c2ccc(COc3cccc(C(CC(=O)O)C4CCC4)c3)cc2C(C)(C)C)c1 (single isomer, unassigned) [Example 70.3, (3S)-3-Cyclobutyl-3-(3-(((2-(1,1-dimethylethyl)-2′-fluoro-5′-(methyloxy)-1,1′-biphenyl-4-yl)methyl)oxy)phenyl)propanoic acid or (3R)-3-cyclobutyl-3-(3-(((2-(1,1-dimethylethyl)-2′-fluoro-5′-(methyloxy)-1,1′-biphenyl-4-yl)methyl)oxy)phenyl)propanoic acid]	0.01 to 0.1 µM	0.1 to 1 µM
CCCCOc1cc(COc2cccc(C(CC(=O)O)C3CCC3)c2)ccc1-c1cc(OC)ccc1F (single isomer, unassigned) [Example 70.4, (3S)-3-(3-(((2-(Butyloxy)-2′-fluoro-5′-(methyloxy)-1,1′-biphenyl-4-yl)methyl)oxy)phenyl)-3-cyclobutylpropanoic acid or (3R)-3-(3-(((2-(butyloxy)-2′-fluoro-5′-(methyloxy)-1,1′-biphenyl-4-yl)methyl)oxy)phenyl)-3-cyclobutylpropanoic acid]	0.1 to 1 µM	0.1 to 1 µM
CCCCOc1cc(COc2cccc(C(CCCC)CC(=O)O)c2)ccc1-c1cc(OC)ccc1F (single isomer, unassigned) [Example 71.2, (3R)-3-(3-(((2-(Butyloxy)-2′-fluoro-5′-(methyloxy)-1,1′-biphenyl-4-yl)methyl)oxy)phenyl)heptanoic acid or (3S)-3-(3-(((2-(butyloxy)-2′-fluoro-5′-(methyloxy)-1,1′-biphenyl-4-yl)methyl)oxy)phenyl)heptanoic acid]	0.1 to 1 µM	0.1 to 1 µM
CCCCC(CC(=O)O)c1cccc(OCc2ccc(-c3cc(OC)ccc3F)c(C3=CCCC3(C)C)c2)c1 (single isomer, unassigned) [Example 71.3, (3R)-3-(3-(((2-(5,5-Dimethyl-1-cyclopenten-1-yl)-2′-fluoro-5′-(methyloxy)-1,1′-biphenyl-4-yl)methyl)oxy)phenyl)heptanoic acid or (3S)-3-(3-(((2-(5,5-dimethyl-1-cyclopenten-1-yl)-2′-fluoro-5′-(methyloxy)-1,1′-biphenyl-4-yl)methyl)oxy)phenyl)heptanoic acid]	0.01 to 0.1 µM	0.1 to 1 µM
CC[C@H](CC(=O)O)c1cccc(OCc2ccc(-c3cc(OC)ccc3F)c([C@H]3CCCC3(C)C)c2)c1 (single isomer, unassigned) [Example 78.4]	< 0.01 µM	0.01 to 0.1 µM
